Columns and labels:
[1] = molecular target: T1, Therminator II DNA polymerase (Thermococcus sp., UniProt Q56366, A485L/D141A/E143A/Y409V); assay: Ladder fragment generation with natural dNTPs and one 3′-O-propargyl-dNTP; assay type: biochemical, Thermococcus sp. 9∘N; conditions: natural dNTPs plus one 3′-O-propargyl-dNTP, KRAS template, 50 cycles
T1 construct: purchased New England BioLabs
Description: During the development of embodiments of the technology provided herein, experiments were conducted to assess using the nucleotide analogs of the present technology to generate nucleic acid fragments that terminate at base-specific positions. In particular, reaction mixtures were produced and tested that included both natural dNTPs and each of the 3′-O-propargyl-dNTPs individually.
To test the fragment generation by 3′-O-propargyl-dTTP, a DNA fragment generation reaction mix was prepared comprising 20 mM Tris-HCl, 10 mM (NH4)SO4, 10 mM KCl, 2 mM MnCl2, 0.1% Triton X-100, 1000 μmol dATP, 1000 μmol dCTP, 1000 μmol dGTP, 1000 μmol dTTP, 200 μmol 3′-O-propargyl-dTTP, 6.25 μmol of primer R_ke2_trP1_T_bio (SEQ ID NO: 2), and 2 units of THERMINATOR II DNA polymerase (New England BioLabs) in a 25-μl final reaction volume. A volume of 0.5 μmol of the KRAS template (SEQ ID NO: 1) was used as template. The polymerase extension reaction was performed using a temperature cycling profile comprising exposing the reaction to a temperature of 95° C. for 2 minutes followed by 50 cycles of 95° C. for 15 seconds, 55° C. for 25 seconds, and 65° C. for 35 seconds.
(§1) After the polymerase extension reaction, 1 μl of the reaction mix was used directly for nucleic acid size analysis by gel electrophoresis (e.g., using an Agilent 2100 Bioanalyzer and High Sensitivity DNA Assay Chip).
Additional polymerase extension experiments were performed using the reaction conditions described above and replacing the 3′-O-propargyl-dTTP with 3′-O-propargyl-dATP, 3′-O-propargyl-dCTP, or 3′-O-propargyl dGTP.

[2] = molecular target: T1, Therminator II DNA polymerase; assay: Polymerase extension assay: incorporation of 3′-O-propargyl-dNTP at the 3′ end of a primer on KRAS template; assay type: biochemical, Thermococcus sp. 9∘N; conditions: 2 mM MnCl2, KRAS template, 35 cycles, size analysis by gel electrophoresis
Description: During the development of embodiments of the technology provided herein, experiments were conducted to assess the incorporation of 3′-O-propargyl-dNTPs into a nucleic acid by a polymerase. In particular, experiments were conducted to evaluate the accurate incorporation of 3′-O-propargyl-dNTPs into a nucleic acid and to evaluate the terminating activity of the 3′-O-propargyl-dNTPs. To assess these characteristics of the nucleotide analogs provided herein, polymerase extension assays were conducted using a template nucleic acid having a sequence from human KRAS (e.g., KRAS exon 2 and flanking intron sequences) and a complementary primer (Table 2).
To test incorporation of a 3′-O-propargyl-dTTP into a nucleic acid, a polymerase extension reaction mix was assembled comprising 20 mM Tris-HCl, 10 mM (NH4)SO4, 10 mM KCl, 2 mM MnCl2, 0.1% Triton X-100, 200 μmol 3′-O-propargyl-dTTP, 6.25 μmol of primer R_ke2_trP1_T_bio (SEQ ID NO: 2), and 2 units of Therminator II DNA polymerase (New England BioLabs) in a 25-μl final reaction volume. A volume of 0.5 μmol of the KRAS template (SEQ ID NO: 1) was used as template (Table 2). The polymerase extension reaction was performed using a temperature cycling profile comprising exposing the reaction to a temperature of 95° C. for 2 minutes followed by 35 cycles of 95° C. for 15 seconds, 55° C. for 25 seconds, and 65° C. for 35 seconds.
as §1
Additional polymerase extension experiments were performed using the reaction conditions described above and replacing the 3′-O-propargyl-dTTP and the primer R_ke2_trP1_T_bio with 3′-O-propargyl-dATP and the primer R_ke2_trP1_A bio (SEQ ID NO: 3); 3′-O-propargyl-dCTP and the primer R_ke2_trP1_C bio (SEQ ID NO: 5); and 3′-O-propargyl dGTP and the primer R_ke2_trP1_G bio (SEQ ID NO: 4).

T1 sequence (Q56366 whole entry D141A/E143A/Y409V/A485L, the tested form may be a part): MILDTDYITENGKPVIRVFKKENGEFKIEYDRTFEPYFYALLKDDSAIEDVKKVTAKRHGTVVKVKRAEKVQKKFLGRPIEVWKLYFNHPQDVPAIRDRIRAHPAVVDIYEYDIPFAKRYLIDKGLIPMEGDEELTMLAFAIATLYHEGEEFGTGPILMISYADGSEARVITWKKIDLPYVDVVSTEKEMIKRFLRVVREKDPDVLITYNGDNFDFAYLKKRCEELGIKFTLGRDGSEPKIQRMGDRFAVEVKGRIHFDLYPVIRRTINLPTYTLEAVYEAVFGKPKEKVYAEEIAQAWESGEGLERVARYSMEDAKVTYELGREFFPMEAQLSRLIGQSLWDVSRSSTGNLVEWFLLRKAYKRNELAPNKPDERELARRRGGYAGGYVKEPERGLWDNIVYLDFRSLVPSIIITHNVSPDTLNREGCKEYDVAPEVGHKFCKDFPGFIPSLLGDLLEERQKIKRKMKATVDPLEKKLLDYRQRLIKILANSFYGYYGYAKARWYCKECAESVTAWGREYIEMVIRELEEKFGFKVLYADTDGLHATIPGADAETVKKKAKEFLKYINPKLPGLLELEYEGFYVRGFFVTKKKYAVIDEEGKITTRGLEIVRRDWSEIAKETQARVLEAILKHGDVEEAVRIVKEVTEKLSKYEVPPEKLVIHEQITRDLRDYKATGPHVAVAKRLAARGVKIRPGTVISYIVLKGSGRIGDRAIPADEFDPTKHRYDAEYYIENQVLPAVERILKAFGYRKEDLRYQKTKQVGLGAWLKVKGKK

## C#CCO[C@H]1C[C@H](n2ccc(N)nc2=O)O[C@@H]1COP(=O)(O)OP(=O)(O)OP(=O)(O)O [3′-O-propargyl-dCTP, 3′-O-propargyl-2′-deoxycytidine-5′-triphosphate]
[1]
  generation of nucleic acid fragments terminated at base-specific positions: generated populations of nucleic acid fragments having a range of sizes corresponding to the expected lengths
[2]
  incorporation at the 3′ end of the primer: successful incorporation

## C#CCO[C@H]1C[C@H](n2cnc3c(=O)[nH]c(N)nc32)O[C@@H]1COP(=O)(O)OP(=O)(O)OP(=O)(O)O [3′-O-propargyl-dGTP, 3′-O-propargyl-2′-deoxyguanosine-5′-triphosphate]
[1]
  generation of nucleic acid fragments terminated at base-specific positions: generated populations of nucleic acid fragments having a range of sizes corresponding to the expected lengths
[2]
  incorporation at the 3′ end of the primer: successful incorporation

Source: patent US10995363B2, “Nucleotide analogs” (ABBOTT MOLECULAR INC., priority 2013, dated 2021)
